Key:
Assay in all cases: relative viability (nuclei count vs DMSO), 5 days (fraction); higher = more cells survive
17-AAG + Pemetrexed = compound: C=CCNC1=C2C[C@@H](C)C[C@H](OC)[C@H](O)[C@@H](C)/C=C(\C)[C@H](OC(N)=O)[C@@H](OC)/C=C\C=C(/C)C(=O)NC(=CC1=O)C2=O [17-AAG] + Nc1nc2[nH]cc(CCc3ccc(C(=O)N[C@@H](CCC(=O)O)C(=O)O)cc3)c2c(=O)[nH]1 [Pemetrexed] (partner 0.2 µM)
Procedure, shortened: (§1)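 Lung cancer cell lines were pin-tool dosed in 1536-well plates on the day after seeding, with either a lone drug or a fixed anchor-drug dose plus five library-drug doses (not always all listed) in √10 steps. Nuclei were counted on 4× images after 5 days. Relative viability is the ratio of treated-well to vehicle-well nuclei counts, with each value a median of duplicate plates.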

17-AAG + Olaparib = compound: C=CCNC1=C2C[C@@H](C)C[C@H](OC)[C@H](O)[C@@H](C)/C=C(\C)[C@H](OC(N)=O)[C@@H](OC)/C=C\C=C(/C)C(=O)NC(=CC1=O)C2=O [17-AAG] + O=C(c1cc(Cc2n[nH]c(=O)c3ccccc23)ccc1F)N1CCN(C(=O)C2CC2)CC1 [Olaparib] (partner 8 µM)
Procedure, shortened: as §1

17-AAG + Vorinostat = compound: C=CCNC1=C2C[C@@H](C)C[C@H](OC)[C@H](O)[C@@H](C)/C=C(\C)[C@H](OC(N)=O)[C@@H](OC)/C=C\C=C(/C)C(=O)NC(=CC1=O)C2=O [17-AAG] + O=C(CCCCCCC(=O)Nc1ccccc1)NO [Vorinostat] (partner 1 µM)
Procedure, shortened: as §1

17-AAG + Linsitinib = compound: C=CCNC1=C2C[C@@H](C)C[C@H](OC)[C@H](O)[C@@H](C)/C=C(\C)[C@H](OC(N)=O)[C@@H](OC)/C=C\C=C(/C)C(=O)NC(=CC1=O)C2=O [17-AAG] + C[C@]1(O)C[C@@H](c2nc(-c3ccc4ccc(-c5ccccc5)nc4c3)c3c(N)nccn32)C1 [Linsitinib] (partner 1 µM)
Procedure, shortened: as §1

| Cell Line | relative viability (17-AAG + Pemetrexed; first compound 0.00128 µM) | relative viability (17-AAG + Pemetrexed; first compound 0.004048 µM) | relative viability (17-AAG + Pemetrexed; first compound 0.0128 µM) | relative viability (17-AAG + Pemetrexed; first compound 0.04048 µM) | relative viability (17-AAG + Pemetrexed; first compound 0.128 µM) | relative viability (17-AAG + Olaparib; first compound 0.00128 µM) | relative viability (17-AAG + Olaparib; first compound 0.004048 µM) | relative viability (17-AAG + Olaparib; first compound 0.0128 µM) | relative viability (17-AAG + Olaparib; first compound 0.04048 µM) | relative viability (17-AAG + Olaparib; first compound 0.128 µM) | relative viability (17-AAG + Vorinostat; first compound 0.00128 µM) | relative viability (17-AAG + Vorinostat; first compound 0.004048 µM) | relative viability (17-AAG + Vorinostat; first compound 0.0128 µM) | relative viability (17-AAG + Vorinostat; first compound 0.04048 µM) | relative viability (17-AAG + Vorinostat; first compound 0.128 µM) | relative viability (17-AAG + Linsitinib; first compound 0.00128 µM) | relative viability (17-AAG + Linsitinib; first compound 0.004048 µM) | relative viability (17-AAG + Linsitinib; first compound 0.0128 µM) | relative viability (17-AAG + Linsitinib; first compound 0.04048 µM) | relative viability (17-AAG + Linsitinib; first compound 0.128 µM) |
| --- | --- | --- | --- | --- | --- | --- | --- | --- | --- | --- | --- | --- | --- | --- | --- | --- | --- | --- | --- | --- |
| 201T | 0.317 | 0.342 | 0.361 | 0.23 | 0.213 | 0.843 | 0.857 | 0.849 | 0.802 | 0.748 | 0.932 | 0.945 | 0.858 | 0.55 | 0.252 | 1.06 | 1.05 | 1.01 | 0.985 | 0.863 |
| A-427 | 0.974 | 0.961 | 0.97 | 0.321 | 0.265 | 0.814 | 0.686 | 0.806 | 0.606 | 0.241 | 0.875 | 0.849 | 0.867 | 0.373 | 0.298 | 1.12 | 1.1 | 1.1 | 1.1 | 1.15 |
| ABC-1 | – | – | – | – | – | 0.677 | 0.847 | 0.737 | 0.954 | 0.486 | 1.15 | 1.15 | 1.21 | 1.06 | 0.724 | 0.866 | 0.773 | 0.876 | 0.761 | 0.816 |
| BEN | 0.756 | 0.882 | 0.716 | 0.526 | 0.247 | 1.06 | 1.03 | 1.01 | 0.666 | 0.358 | 0.673 | 0.586 | 0.664 | 0.667 | 0.464 | 0.971 | 0.947 | 0.911 | 0.89 | 0.276 |
| CAL-12T | 1.17 | 0.951 | 1.15 | 1.04 | 0.207 | 0.754 | 0.697 | 0.725 | 0.371 | 0.211 | 0.796 | 0.729 | 0.671 | 0.65 | 0.282 | 0.764 | 0.815 | 0.73 | 0.425 | 0.276 |
| Calu-6 | – | – | – | – | – | 0.564 | 0.571 | 0.557 | 0.184 | 0.124 | – | – | – | – | – | 0.86 | 0.977 | 0.942 | 0.353 | 0.146 |
| ChaGo-K-1 | 0.25 | 0.276 | 0.264 | 0.253 | 0.204 | 0.439 | 0.453 | 0.388 | 0.366 | 0.257 | 0.749 | 0.776 | 0.691 | 0.49 | 0.214 | – | – | – | – | – |
| EBC-1 | – | – | – | – | – | 0.676 | 0.407 | 0.13 | 0.142 | 0.126 | – | – | – | – | – | 0.851 | 0.579 | 0.162 | 0.139 | 0.12 |
| IA-LM | – | – | – | – | – | 0.89 | 0.919 | 0.68 | 0.179 | 0.0981 | 0.911 | 1.02 | 0.927 | 0.819 | 0.823 | 0.551 | 0.667 | 0.599 | 0.177 | 0.102 |

Source: the supplement of paper PMC10307832
